Reference: patent US12550899B2, “Topramezone derivative and use thereof” (priority 2023, dated 2026)
Entries after “also recorded” stand apart in the source; their conditions may differ.

Legend:
[1] = test system: grassy weeds and broadleaf weeds; experiment: Laboratory bioactivity efficacy test 2.2, visual observation of weeds; type: in vivo
Description: • grassy weeds: Digitaria sanguinalis, Eleusine indica, Echinochloa crusgalli; • Broadleaf weeds: Portulaca oleracea, Abutilon theophrasti medicus. 2.2.2 Test Conditions
(§1) The soil used for the test was a mixture of surface 20 cm loam and vermiculite, mixed in a volume ratio of 3:1 to form a culture soil. The test weeds were cultured in a glass greenhouse with a temperature ranging from 25° C. to 35° C. and under natural light.
(§2) Quantified seeds of Digitaria sanguinalis, Eleusine indica, Echinochloa crusgalli, Portulaca oleracea, and Abutilon theophrasti medicus were sown in plastic pots with a diameter of 9 cm, and covered with 1-2 mm of soil. The ports were then placed in enamel trays filled with water, and watered by bottom irrigation. After the water seeped to the soil surface, the pots were transferred to the glass greenhouse for standby.
(§3) Five dosages were set for Compound I, Compound II and the control herbicide Topramezone, which were 3.75, 7.5, 15, 30 and 60 grams of active ingredient per hectare respectively. In addition, a blank control was also prepared.
(§4) The required amount of the herbicide was accurately measured out and directly added with water, which was diluted to the required dosage by using the serial dilution method for standby.
(§5) The test was conducted on grassy weeds at the two-leaf and one-heart stage, Abutilon theophrasti medicus at the 2-true-leaf stage, and Portulaca oleracea at the 3-5-leaf stage, with the stems and leaves both sprayed uniformly. The ASS-4 automatic control spraying system with a fan-shaped nozzle was used indoors for herbicide application. Depending on the nozzle pressure and flow rate, 50 mL of herbicide solution was applied to a spraying area of 1.1 m^2 (which was equivalent to the water consumption of 30 L per mu). The system's operating speed was calibrated. The plastic pots to be treated were arranged evenly on the spraying platform to ensure uniform treatment. The spray pressure was set to 0.35 MPa, and the flow rate of the fan-shaped nozzle was set to 800 mL/min. The spraying was carried out in sequence from the low dosage to the high dosage. Each treatment was repeated two to four times.
The herbicide was applied once. After spraying, the pots were air-dried for one day and then placed in the glass greenhouse. Regular watering was conducted to maintain moisture.
(§6) The damage symptoms of the weeds (such as growth inhibition, chlorosis, malformation, etc.) were carefully recorded at 3, 7, 10, and 20 days after herbicide application. A visual comparison of the herbicide effectiveness was made. At 20 days post-application, the fresh weight of the aboveground parts of the weeds from each treatment group was measured, and the fresh weight control efficacy was calculated.

Digitaria sanguinalis = experiment: Laboratory rainfastness test (foliar spray, simulated rainfall); type: in vivo; settings: for Average fresh weight / Control efficacy: 20 days post-application
Description: Refer to the “Pesticides guidelines for laboratory bioactivity tests Part 4: Foliar spray application test for herbicide activity, NY/T 1155.4-2006”.
as §1
as §2, with “A measured quantity” for “Quantified seeds”, “sanguinalis seeds” for “sanguinalis, Eleusine indica, Echinochloa crusgalli, Portulaca oleracea, and Abutilon theophrasti medicus”
as §3, §4
as §5, with “Digitaria sanguinalis” for “grassy weeds”, “one-heart” for “one-heart stage, Abutilon theophrasti medicus at the 2-true-leaf stage, and Portulaca oleracea at the 3-5-leaf”, “repeated” for “repeated two to”
The rainfastness test was set as follows: at 0.5 hours, 1.0 hour, 3.0 hours, and 6.0 hours after the application of the herbicide, the weeds that have already been sprayed with the herbicide were subjected to stem and leaf showering with a specific shower equipment simulating rainfall. Weeds that were not subjected to the showering treatment served as the control group.
as §6, with “made after simulated rainfall at different time intervals.” for “made.”
The treatment results were calculated according to the following formula: weed fresh weight control efficacy (%)=(control fresh weight−treatment fresh weight)/control fresh weight×100. A DPS statistical software was used to conduct regression analysis on the logarithmic values of the herbicide dosage and the probit values of the weed fresh weight control efficacy, and the correlation coefficient, GR50, GR90, and the 95% confidence interval were calculated.

[2] = No spraying (no simulated rainfall), dosage 3.75 g/hectare
[3] = No spraying (no simulated rainfall), dosage 7.5 g/hectare
[4] = No spraying (no simulated rainfall), dosage 15 g/hectare
[5] = No spraying (no simulated rainfall), dosage 30 g/hectare
[6] = No spraying (no simulated rainfall), dosage 60 g/hectare
[7] = Spraying water 0.5 hour after herbicide application, dosage 3.75 g/hectare
[8] = Spraying water 0.5 hour after herbicide application, dosage 7.5 g/hectare
[9] = Spraying water 0.5 hour after herbicide application, dosage 15 g/hectare
[10] = Spraying water 0.5 hour after herbicide application, dosage 30 g/hectare
[11] = Spraying water 0.5 hour after herbicide application, dosage 60 g/hectare
[12] = Spraying water 1.0 hour after herbicide application, dosage 3.75 g/hectare
[13] = Spraying water 1.0 hour after herbicide application, dosage 7.5 g/hectare
[14] = Spraying water 1.0 hour after herbicide application, dosage 15 g/hectare
[15] = Spraying water 1.0 hour after herbicide application, dosage 30 g/hectare
[16] = Spraying water 1.0 hour after herbicide application, dosage 60 g/hectare
[17] = Spraying water 3.0 hour after herbicide application, dosage 3.75 g/hectare
[18] = Spraying water 3.0 hour after herbicide application, dosage 7.5 g/hectare
[19] = Spraying water 3.0 hour after herbicide application, dosage 15 g/hectare
[20] = Spraying water 3.0 hour after herbicide application, dosage 30 g/hectare
[21] = Spraying water 3.0 hour after herbicide application, dosage 60 g/hectare
[22] = Spraying water 6.0 hour after herbicide application, dosage 3.75 g/hectare
[23] = Spraying water 6.0 hour after herbicide application, dosage 7.5 g/hectare
[24] = Spraying water 6.0 hour after herbicide application, dosage 15 g/hectare
[25] = Spraying water 6.0 hour after herbicide application, dosage 30 g/hectare
[26] = Spraying water 6.0 hour after herbicide application, dosage 60 g/hectare

How did the “Visual observation of weeds” value ([1]; 3 to 7 days after application, grassy weeds and broadleaf weeds like Portulaca oleracea) turn out when `Cc1c(C(=O)c2cnn(C)c2O)ccc(S(C)(=O)=O)c1C1=NOCC1` [Topramezone] was run?
Its value is “gradually became whitened and withered”.

And the “Visual observation of weeds” value ([1]; 10 days after application)?
The value was “excellent treatment effects”.

What about the “Visual observation of weeds” value ([1]; 20 days after application) of the same molecule?
Its value is “dried up and died”.

And the Average fresh weight (Digitaria sanguinalis; [2])?
Its Average fresh weight is 6.2 g.

And the Control efficacy (Digitaria sanguinalis; [2])?
Its Control efficacy is 4.6%.

And the Average fresh weight (Digitaria sanguinalis; [3])?
The Average fresh weight was 5.0 g.

What about the Control efficacy (Digitaria sanguinalis; [3]) of the same molecule?
Its Control efficacy is 23.4%.

And the Average fresh weight (Digitaria sanguinalis; [4])?
The Average fresh weight was 3.7 g.

And the Control efficacy (Digitaria sanguinalis; [4])?
The Control efficacy was 43.7%.

And the Average fresh weight (Digitaria sanguinalis; [5])?
The Average fresh weight was 2.3 g.

And the Control efficacy (Digitaria sanguinalis; [5])?
The Control efficacy was 64.8%.

And the Average fresh weight (Digitaria sanguinalis; [6])?
The Average fresh weight was 1.2 g.

And the Control efficacy (Digitaria sanguinalis; [6])?
The Control efficacy was 82.4%.

What about the Average fresh weight (Digitaria sanguinalis; [7]) of the same molecule?
Its Average fresh weight is 6.5 g.

And the Control efficacy (Digitaria sanguinalis; [7])?
The Control efficacy was 0.0%.

And the Average fresh weight (Digitaria sanguinalis; [8])?
Its Average fresh weight is 6.0 g.

What about the Control efficacy (Digitaria sanguinalis; [8]) of the same molecule?
Its Control efficacy is 7.7%.

What about the Average fresh weight (Digitaria sanguinalis; [9]) of the same molecule?
The Average fresh weight was 5.9 g.

What about the Control efficacy (Digitaria sanguinalis; [9]) of the same molecule?
Its Control efficacy is 10.3%.

What about the Average fresh weight (Digitaria sanguinalis; [10]) of the same molecule?
Its Average fresh weight is 5.5 g.

What about the Control efficacy (Digitaria sanguinalis; [10]) of the same molecule?
Its Control efficacy is 16.5%.

And the Average fresh weight (Digitaria sanguinalis; [11])?
Its Average fresh weight is 4.6 g.

What about the Control efficacy (Digitaria sanguinalis; [11]) of the same molecule?
Its Control efficacy is 29.1%.

And the Average fresh weight (Digitaria sanguinalis; [12])?
Its Average fresh weight is 6.4 g.

And the Control efficacy (Digitaria sanguinalis; [12])?
The Control efficacy was 2.7%.

And the Average fresh weight (Digitaria sanguinalis; [13])?
Its Average fresh weight is 6.0 g.

And the Control efficacy (Digitaria sanguinalis; [13])?
The Control efficacy was 8.0%.

What about the Average fresh weight (Digitaria sanguinalis; [14]) of the same molecule?
Its Average fresh weight is 5.7 g.

And the Control efficacy (Digitaria sanguinalis; [14])?
Its Control efficacy is 13.4%.

What about the Average fresh weight (Digitaria sanguinalis; [15]) of the same molecule?
The Average fresh weight was 5.3 g.

And the Control efficacy (Digitaria sanguinalis; [15])?
The Control efficacy was 19.2%.

What about the Average fresh weight (Digitaria sanguinalis; [16]) of the same molecule?
Its Average fresh weight is 4.7 g.

What about the Control efficacy (Digitaria sanguinalis; [16]) of the same molecule?
Its Control efficacy is 28.0%.

And the Average fresh weight (Digitaria sanguinalis; [17])?
Its Average fresh weight is 6.4 g.

What about the Control efficacy (Digitaria sanguinalis; [17]) of the same molecule?
Its Control efficacy is 1.5%.

What about the Average fresh weight (Digitaria sanguinalis; [18]) of the same molecule?
Its Average fresh weight is 5.8 g.

And the Control efficacy (Digitaria sanguinalis; [18])?
The Control efficacy was 10.7%.

What about the Average fresh weight (Digitaria sanguinalis; [19]) of the same molecule?
The Average fresh weight was 5.7 g.

And the Control efficacy (Digitaria sanguinalis; [19])?
The Control efficacy was 13.4%.

What about the Average fresh weight (Digitaria sanguinalis; [20]) of the same molecule?
Its Average fresh weight is 4.1 g.

What about the Control efficacy (Digitaria sanguinalis; [20]) of the same molecule?
The Control efficacy was 36.8%.

And the Average fresh weight (Digitaria sanguinalis; [21])?
Its Average fresh weight is 3.3 g.

What about the Control efficacy (Digitaria sanguinalis; [21]) of the same molecule?
Its Control efficacy is 50.2%.

What about the Average fresh weight (Digitaria sanguinalis; [22]) of the same molecule?
Its Average fresh weight is 6.5 g.

What about the Control efficacy (Digitaria sanguinalis; [22]) of the same molecule?
The Control efficacy was 0.4%.

And the Average fresh weight (Digitaria sanguinalis; [23])?
Its Average fresh weight is 5.1 g.

And the Control efficacy (Digitaria sanguinalis; [23])?
The Control efficacy was 21.8%.

What about the Average fresh weight (Digitaria sanguinalis; [24]) of the same molecule?
The Average fresh weight was 3.5 g.

And the Control efficacy (Digitaria sanguinalis; [24])?
The Control efficacy was 46.0%.

What about the Average fresh weight (Digitaria sanguinalis; [25]) of the same molecule?
Its Average fresh weight is 2.7 g.

What about the Control efficacy (Digitaria sanguinalis; [25]) of the same molecule?
Its Control efficacy is 59.4%.

And the Average fresh weight (Digitaria sanguinalis; [26])?
Its Average fresh weight is 1.2 g.

And the Control efficacy (Digitaria sanguinalis; [26])?
The Control efficacy was 81.2%.

What about the “Effect of rain on control efficacy (in words)” value (Digitaria sanguinalis; rain 0.5 h, 1.0 h and 3.0 h after application) of the same molecule?
Its value is “obviously affected; also recorded: significantly reduced”.

And the “Effect of rain on control efficacy (in words)” value (Digitaria sanguinalis; rain 6.0 h after application)?
Its value is “relatively small impact; also recorded: almost unaffected”.
